Results reported in patent US12370176B2, “Methods of use for KV7 channel activators” (Biohaven Therapeutics Ltd., priority 2019, dated 2025).

What was measured:
KCNQ2 W236L = target: T1, KCNQ2 W236L (Homo sapiens, UniProt O43526, W236L); assay: Whole cell voltage-clamp, KCNQ2 W236L channels in CHO cells; assay type: cell-based
T1 construct: expressed in transfected cells; host or cells: CHO cells
Description: (§1) Four highly recurrent KCNQ2-EE missense variants (FIG. 3), R210H (located in S4 of the voltage-sensor), T274M (located in the pore helix), A294V (located at the border of the pore loop and S6), and R581Q/L (located in the intracellular helix C), were introduced into KCNQ2 cDNA by QuikChange site-directed mutagenesis. R210H is in S4 of the voltage-sensor, T274M is in the pore helix, A294V is at the border of the pore loop and S6, and R581Q is in the intracellular helix C. Using lipid-mediated transfection, plasmids including the pathogenic variants were co-expressed with wildtype KCNQ2 or KCNQ2 and KCNQ3 subunits in Chinese hamster ovary (CHO) cells. The KCNQ2 S5 helix mutation W236L, which abolishes EZO modulation, was used to characterize Compound A binding. Whole cell voltage-clamp protocols were used to measure gating and conductance of wildtype channels and mutated subunit containing channels, before, during and after Compound A application via focal pipette perfusion.

[1] = target: T2, KCNQ2 homomers (Kv7.2 homomers) (Homo sapiens, UniProt O43526); assay: Whole cell voltage-clamp, wildtype KCNQ2 homomers expressed in CHO cells; assay type: cell-based; details: 10.0 μM ezogabine; FIG. 11
T2 construct: expressed in transfected cells; host or cells: CHO cells
Protocol: Biological Assay Methods—Using lipid mediated transfection, plasmids including only wildtype (wt) KCNQ2, only wt KCNQ3, or both wt KCNQ2 and wt KCNQ3 subunits were expressed in Chinese hamster ovary (CHO) cells. Whole cell voltage-clamp protocols were used to measure gating and conductance density of wt channels before, during and after test compound application via focal pipette perfusion. The half-activating voltage (V1/2) was determined by Boltzmann fits of the conductance-voltage (G/V) curves.
as §1, with “Whole cell voltage-clamp protocols were used to measure gating and conductance of wildtype channels and mutated subunit containing channels, before, during and after Compound A application via focal pipette perfusion.” left out

## CCOC(=O)Nc1ccc(NCc2ccc(F)cc2)cc1N [EZO, ezogabine]
KCNQ2 W236L; W236L channels, 10.0 μM ezogabine, FIG. 14
  current density: did not affect
KCNQ2 W236L; wildtype KCNQ2 versus W236L
  dependence of KCNQ2 homomer activation on W236: requires W236, like EZO
[1]
  current density: increased
